In ChEMBL document CHEMBL5518193, “Discovery of N-alkyl-N-benzyl thiazoles as novel TRPC antagonists for the treatment of glioblastoma multiforme” (Eur J Med Chem, 2024):

Key:
[1] = molecular target: T1, Short transient receptor potential channel 6 (Homo sapiens, UniProt Q9Y210); experiment: Antagonist activity at TRPC6 (unknown origin) assessed as inhibition of channel activity
T1 sequence (Q9Y210 whole entry): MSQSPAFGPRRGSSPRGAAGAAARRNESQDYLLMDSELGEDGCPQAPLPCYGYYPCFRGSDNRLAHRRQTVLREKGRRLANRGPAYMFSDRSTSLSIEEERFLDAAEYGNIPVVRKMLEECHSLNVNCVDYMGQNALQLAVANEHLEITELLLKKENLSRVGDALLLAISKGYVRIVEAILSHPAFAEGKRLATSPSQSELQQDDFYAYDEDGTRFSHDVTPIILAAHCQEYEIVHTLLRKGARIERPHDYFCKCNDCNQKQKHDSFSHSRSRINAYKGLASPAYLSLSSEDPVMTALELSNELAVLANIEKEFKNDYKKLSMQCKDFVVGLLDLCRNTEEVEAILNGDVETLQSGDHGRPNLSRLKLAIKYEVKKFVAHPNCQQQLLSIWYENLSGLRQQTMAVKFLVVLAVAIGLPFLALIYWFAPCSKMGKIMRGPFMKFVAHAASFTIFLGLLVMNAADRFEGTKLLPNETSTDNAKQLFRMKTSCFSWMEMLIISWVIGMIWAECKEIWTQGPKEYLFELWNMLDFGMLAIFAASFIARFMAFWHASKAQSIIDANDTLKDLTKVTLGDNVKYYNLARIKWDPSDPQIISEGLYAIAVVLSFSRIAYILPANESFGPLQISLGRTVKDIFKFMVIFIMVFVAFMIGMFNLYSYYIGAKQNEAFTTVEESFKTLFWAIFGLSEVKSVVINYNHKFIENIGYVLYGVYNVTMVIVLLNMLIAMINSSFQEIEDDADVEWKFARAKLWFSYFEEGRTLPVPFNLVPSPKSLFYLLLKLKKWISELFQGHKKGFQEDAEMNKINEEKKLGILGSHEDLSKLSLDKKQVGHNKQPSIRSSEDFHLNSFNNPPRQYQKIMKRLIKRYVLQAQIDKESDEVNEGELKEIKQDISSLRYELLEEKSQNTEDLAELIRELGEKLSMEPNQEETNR

[2] = molecular target: T2, Short transient receptor potential channel 5 (Homo sapiens, UniProt Q9UL62); experiment: Antagonist activity at TRPC5 (unknown origin) assessed as inhibition of channel activity
T2 sequence (Q9UL62 whole entry): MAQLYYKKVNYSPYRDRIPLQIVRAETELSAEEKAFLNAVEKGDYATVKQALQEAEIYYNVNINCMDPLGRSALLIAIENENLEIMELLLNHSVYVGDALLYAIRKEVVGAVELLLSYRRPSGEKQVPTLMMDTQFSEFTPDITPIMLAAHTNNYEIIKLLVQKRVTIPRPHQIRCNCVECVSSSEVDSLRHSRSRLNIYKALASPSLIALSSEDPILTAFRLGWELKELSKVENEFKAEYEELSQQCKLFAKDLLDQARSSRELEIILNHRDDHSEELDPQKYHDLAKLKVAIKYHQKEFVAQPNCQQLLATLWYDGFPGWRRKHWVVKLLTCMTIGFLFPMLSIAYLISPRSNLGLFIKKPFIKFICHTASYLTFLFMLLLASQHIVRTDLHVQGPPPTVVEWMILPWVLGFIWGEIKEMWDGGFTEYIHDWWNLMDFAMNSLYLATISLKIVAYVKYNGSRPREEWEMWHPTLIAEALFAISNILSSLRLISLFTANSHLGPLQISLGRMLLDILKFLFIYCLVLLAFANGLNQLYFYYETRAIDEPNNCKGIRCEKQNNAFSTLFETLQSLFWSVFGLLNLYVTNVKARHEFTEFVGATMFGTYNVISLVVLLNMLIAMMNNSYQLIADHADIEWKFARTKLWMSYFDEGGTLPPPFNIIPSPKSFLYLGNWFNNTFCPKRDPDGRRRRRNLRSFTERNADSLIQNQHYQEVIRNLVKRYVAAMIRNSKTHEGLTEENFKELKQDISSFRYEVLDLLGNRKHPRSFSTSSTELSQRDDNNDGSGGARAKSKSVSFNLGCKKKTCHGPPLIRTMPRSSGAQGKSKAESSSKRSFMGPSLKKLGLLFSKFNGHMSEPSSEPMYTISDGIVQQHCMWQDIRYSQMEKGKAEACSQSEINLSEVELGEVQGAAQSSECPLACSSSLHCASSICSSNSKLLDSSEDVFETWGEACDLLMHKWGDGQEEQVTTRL

- IC50 [1]: 7.2 µM
- IC50 [2]: 10.6 µM
Structure (SMILES): O=C1O/C(=C/Br)CCC1c1cccc2ccccc12 (configuration not stated) [BROMOENOL LACTONE]
